Results reported in US20070054353A1, “Nuclear receptor transcriptional corepressor and uses thereof” (priority 2002, published 2007).
Values belong to the molecule of their own block, whether it stands above or below them. Where a SMILES comes first, the peptide text is derived from it. [ ]: non-standard residue; d: D form. Aoe = N[C@@H](CCCCCC(=O)[C@@H]1CO1)C(=O)O

Legend:
[1] = target: T1, interaction of LCoR and ERα (Homo sapiens, UniProt P03372); experiment: BRET assay of LCoR-ERα interaction in living COS-7 cells; type: cell-based; settings: 10^−7M ligand, COS-7 cells cotransfected with ERα-EYFP and LCoR-rluc
T1 construct: expressed in transfected cells; host or cells: COS-7
T1 sequence (P03372 1-595): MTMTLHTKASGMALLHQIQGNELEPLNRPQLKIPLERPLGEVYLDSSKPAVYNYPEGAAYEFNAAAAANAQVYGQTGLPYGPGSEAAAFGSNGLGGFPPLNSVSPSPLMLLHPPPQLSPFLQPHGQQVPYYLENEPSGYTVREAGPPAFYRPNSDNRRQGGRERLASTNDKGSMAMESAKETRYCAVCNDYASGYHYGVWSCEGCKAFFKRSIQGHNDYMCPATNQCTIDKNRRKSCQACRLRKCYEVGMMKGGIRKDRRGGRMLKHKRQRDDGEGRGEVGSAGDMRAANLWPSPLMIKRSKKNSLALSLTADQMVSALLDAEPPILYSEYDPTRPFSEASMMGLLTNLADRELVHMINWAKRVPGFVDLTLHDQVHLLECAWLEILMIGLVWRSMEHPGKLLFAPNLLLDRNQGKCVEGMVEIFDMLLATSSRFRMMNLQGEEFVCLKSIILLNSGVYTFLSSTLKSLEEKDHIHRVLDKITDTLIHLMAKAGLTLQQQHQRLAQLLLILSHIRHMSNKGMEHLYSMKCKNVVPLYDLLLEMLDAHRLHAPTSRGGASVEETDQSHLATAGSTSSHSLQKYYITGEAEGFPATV
Procedure: Readings were started immediately after coelenterazine H addition, and 10 repeated measures were taken.
Interaction of ERα and LCoR in vivo was further tested by bioluminescence resonance energy transfer (BRET) in living COS-7 cells transiently cotransfected with plasmids expressing ERα-EYFP and LCoR-rluc fusion proteins. […] BRET ratios were calculated as described in experimental procedures.

ERα LBD = target: T2, ERα LBD (Homo sapiens, UniProt P03372); experiment: GST pull-down of in vitro translated LCoR with GST-ERα LBD; type: binding; settings: ligand added to 10^−6 M
T2 construct: the ERα LBD fused to GST (GST-ERα-LBD); made in house; LCoR by in vitro translation
T2 sequence (P03372 311-547 limits assumed): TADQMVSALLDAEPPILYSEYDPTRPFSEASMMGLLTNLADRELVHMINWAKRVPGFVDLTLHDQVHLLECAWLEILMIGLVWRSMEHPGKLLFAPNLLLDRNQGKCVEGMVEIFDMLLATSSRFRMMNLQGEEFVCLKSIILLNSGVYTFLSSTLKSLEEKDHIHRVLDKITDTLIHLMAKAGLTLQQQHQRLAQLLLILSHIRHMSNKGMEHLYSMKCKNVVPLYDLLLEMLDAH

CtBP1 = target: T3, CtBP1 (Homo sapiens, UniProt Q13363); experiment: GST pull-down of in vitro translated CtBP1 with GST-LCoR; type: binding
T3 construct: made in house; host or cells: CtBP1 by in vitro translation
Procedure: GST pull-down assays were performed as described (Eng, F.C.S. et al. (1998) J. Biol. Chem., 273, 28371-7), with the exception that assays performed with in vitro translated ER378 included two more washes made with the GST buffer containing 150 mM NaCl. For immunoprecipitations of tagged proteins, COS-7 cells in 100 mm dishes were transfected with 6 μg of HA-LCOR and/or 6 μg of HA-Flag-HDAC6 or with 6 μg of Flag-LCoR and/or 6 μg of HA-HDAC3 and pSG5 carrier. 48 h after transfection, cells were lysed 30 min at […] in 1 ml of JLB (20 mM Tris-HCl, pH8, 150 mM KCl, 10% glycerol, 0.1% IGEPAL CA-630, and complete protease inhibitor cocktail; Boehringer-Mannheim, Laval, Qc). Cell debris were pelleted by centrifugation (14,000 rpm, 5 min), and proteins immunoprecipitated from 600 μl of supernatant by incubation for 1 h at 4° C. with 4 μg of α-Flag M2 antibody or polyclonal anti-HDAC3, followed by overnight incubation with protein A+G agarose or protein-A agarose beads for anti-Flag, and anti-HDAC3, respectively. Beads were washed (3×) with JLB. Bound immunocomplexes were boiled in Laemmli buffer, separated by 10% SDS/PAGE, and blotted on PVDF membrane with α-Flag M2-peroxidase, α-HDAC3, α-HA-peroxidase (1:500), and detected by enhanced chemiluminescence (NEN Life Science Products, Boston, Mass.). […]

HDAC6 = experiment: ERα-dependent CAT reporter with LCoR and HDAC6 cotransfection in MCF-7 cells; type: cell-based, human; settings: estradiol 10 nM, TSA 500 nM, trapoxin 50 nM
Procedure: All cells were cultured under the recommended conditions. For immunocytochemistry, COS-7 cells grown on collagen IV-treated microscope slides in 6-well plates in DMEM, supplemented with 10% FBS were transfected in medium without serum with 12.5 μl of lipofectamine 2000 (Invitrogen, Burlington, Ont.) containing 1 μg each of pSG5/LCoR and HA-Flag-HDAC6/pcDNA3. Medium was replaced 24 h after transfection and cells were prepared for immunocytochemistry after 48 h as described below. For immunoprecipitation of tagged proteins, MCF-7 cells in 100 mm dishes were transfected with 10 μl of lipofectamine containing 10 μg of pSG5 vectors containing Flag-LCoR, Flag-m1, Flag-m2 or Flag-m1+2. For analysis of the effects of HDACs 3 or 6 on LCoR corepression, COS-7 cells (60-70% confluent) grown in DMEM without phenol red, supplemented with 10% FBS on 6-well plates were transfected in medium without serum with lipofectamine 2000 (Invitrogen, Burlington, Ontario, Canada) with 100 ng of ERα expression vectors as indicated, 300 ng of LCoR/pSG5, 300 ng of HA-HDAC3/pCDNA3.1 or […], 250 ng of ERE3-TATA-CAT reporter plasmid, 250 ng of internal control vector pCMV-βgal, and pBluescript carrier DNA to 4 μg. Medium was replaced 18 hr after transfection by a medium containing charcoal-stripped serum and ligand (10 nM) for 30 hr, as indicated. […]

- effect on BRET ratio [1]: no significant effect
- induction of interaction of LCoR with ERα (ERα LBD): did not induce interaction
Molecule: 4-hydroxytamoxifen

- effect on interaction of CtBP1 with LCoR in vitro (CtBP1): no effect
Molecule: NC(=O)C1=CN([C@@H]2O[C@H](COP(=O)(O)OP(=O)(O)OC[C@H]3O[C@@H](n4cnc5c(N)ncnc54)[C@H](O)[C@@H]3O)[C@@H](O)[C@H]2O)C=CC1 [NADH]

Molecule: O=C1N[C@@H](Cc2ccccc2)C(=O)N2CCC[C@@H]2C(=O)N[C@@H](CCCCCC(=O)[C@@H]2CO2)C(=O)N[C@H]1Cc1ccccc1 [trapoxin] (cyclo(FF[dP][Aoe]))
- effect on HDAC6 repression / enhancement of LCoR corepression of ERα transactivation (HDAC6): not
